Assay results from patent US12644840B2, “Pathogenic susceptibility assessment based on autofluoresence” (Adiuvo D[…] Limited, priority 2021, dated 2026).

How the values were obtained:
[1] = tested on: Mycobacterium tuberculosis; test: Autofluorescence-based susceptibility testing of positive sputum samples; assay type: cell-based
Pseudomonas aeruginosa = settings: concentration added to sensitive and resistant strain wells; imaged at 0th and 4th hour; cited from earlier work

Structure (SMILES)	MIC [1] [µg/mL]	Minimum Inhibitory Concentration (MIC) Value (Pseudomonas aeruginosa) [µg/mL]
NC[C@H]1O[C@H](O[C@H]2[C@H](O)[C@@H](O[C@H]3O[C@H](CO)[C@@H](O)[C@H](N)[C@H]3O)[C@H](N)C[C@@H]2N)[C@H](O)[C@@H](O)[C@@H]1O [kanamycin]	> 3	–
C[C@@H](O)[C@H]1C(=O)N2C(C(=O)O)=C(S[C@@H]3CN[C@H](C(=O)N(C)C)C3)[C@H](C)[C@H]12 [meropenem]	–	4
